Assays:
[1] = target: T1, Ileal Bile Acid Transporter Human (Homo sapiens, UniProt Q12908); assay: ISBT Hu HEK Uptake SPA: Human HEK Glycocholic acid Uptake Radiometric SPA; type: cell-based; settings: human IBAT in HEK cells
T1 construct: expressed in transfected cells; host or cells: HEK
T1 sequence (Q12908 1-348): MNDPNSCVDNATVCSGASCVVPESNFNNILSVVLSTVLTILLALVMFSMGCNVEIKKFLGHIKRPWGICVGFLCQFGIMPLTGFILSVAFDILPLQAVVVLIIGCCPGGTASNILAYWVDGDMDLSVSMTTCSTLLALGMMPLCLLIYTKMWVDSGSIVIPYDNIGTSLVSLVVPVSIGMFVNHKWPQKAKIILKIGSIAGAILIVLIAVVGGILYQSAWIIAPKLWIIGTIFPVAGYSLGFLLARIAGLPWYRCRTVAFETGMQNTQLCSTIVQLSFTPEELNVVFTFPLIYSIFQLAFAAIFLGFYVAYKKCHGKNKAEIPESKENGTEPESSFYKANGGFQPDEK
Protocol: ISBT Hu HEK Uptake SPA 13203 IBAT HUM Ileal Bile Acid Transporter Human HEK Glycocholic acid Uptake Radiometric—SPA Inhibitor IC50 Mean IC50 (nM) was determined for the compounds of examples 1-14

Slc10a2 protein = target: T2, Slc10a2 protein (Mus musculus, UniProt P70172); assay: ob/ob mice gavaged with Slc10a2 inhibitor for 11 days: plasma, liver and distal ileum analyses; type: in vivo
T2 construct: from tissue; host or cells: living male ob/ob mice (Taconic), ileum in vivo
T2 sequence (P70172 1-348): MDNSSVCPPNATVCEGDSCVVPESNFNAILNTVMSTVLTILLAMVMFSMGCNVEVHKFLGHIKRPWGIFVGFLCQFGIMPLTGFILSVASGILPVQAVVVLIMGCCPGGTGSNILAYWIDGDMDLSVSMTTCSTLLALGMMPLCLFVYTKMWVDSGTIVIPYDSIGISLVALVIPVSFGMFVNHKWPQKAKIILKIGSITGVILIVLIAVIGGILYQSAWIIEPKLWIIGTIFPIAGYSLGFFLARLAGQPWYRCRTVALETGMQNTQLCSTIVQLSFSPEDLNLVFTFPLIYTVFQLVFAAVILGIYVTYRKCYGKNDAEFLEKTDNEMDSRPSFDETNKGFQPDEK
Description: A diet enriched in sucrose (D12329, Research Diets, NJ) together with drinking water supplemented with 10% fructose was used for the high carbohydrate experiment. Animals had free access to the diet for two weeks. Control animals received standard mouse chow and tap water. Male ob/ob animals were from Taconic, DK. Ob/ob animals were gavaged with a specific Slc10a2 inhibitor Example 14 or a control vehicle for 11 days. Animals had free access to food and water. All animal care and experiments were conducted in accordance with accepted standards of humane animal care and approved by the Ethics Committee of Goteborg University.
Blood was centrifuged, and plasma was analyzed for total cholesterol and TGs using the IL TestTM cholesterol 181618-10 and TG 181610-60 kits on the Monarch 2000 system (IL Scandinavia, Gothenburg, Sweden). Lipoprotein cholesterol profiles were obtained by separation of […] of plasma using a micro fast protein liquid chromatography (FPLC) system for the generation of lipoprotein profiles (15). Plasma insulin levels were analyzed using a rodent insulin RIA kit (Linco, St. Charles, Mich.). Total plasma glucose was analyzed using the IL Test (IL Scandinavia, Gothenburg, Sweden) on the Monark 2000 system. Blood glucose was determined using a Bayer Elite glucometer (Bayer diagnostics, Germany). Plasma free fatty acids were analyzed employing a commercial 3 NEFA kit (Wako Chemicals
Total RNA was extracted from frozen livers or distal ileum with TRIzol reagent (Invitrogen, Carlsbad, Calif.). The RNA was DNase-treated with RQ1 Dnase (Promega, Madison, Wis.). cDNA synthesis and quantitative real time PCR was performed employing HPRT as endogenous control (18). Primer and probe information are available upon request.
A ligand blot employing ^125I-labeled rabbit β-VLDL was used to detect LDL receptors in liver as described (19). Hepatic SR-BI was assayed by immunoblot using a rodent specific rabbit polyclonal antibody (Novus Biologicals Inc., Littleton, Colo.), as described (20). Cyp7a1 protein levels were assayed in liver microsomal protein samples by immunoblot using a rabbit polyclonal antibody directed against the C-terminus of the CYP7A1 (18). To detect SREBP1 protein, cytoplasmic and nuclear protein preparations from liver were performed using the NE—PER reagent (Pierce), including Complete protease inhibitor (Roche), 1 mM phenyl-methylsulfonyl fluoride, 0.5 mM leupeptin, 5 μg/ml Calpain inhibitor I (Biomol, Pa.), following the manufacturer's instructions. 50 μg and 25 μg of cytoplasmic and nuclear liver protein fractions, respectively, were electrophoresed on NuPage Bis-Tris gels (Invitrogen) and transferred to nitrocellulose membranes. Membranes were blocked in 5% skimmed milk powder and incubated with a mouse monoclonal antibody raised against the N′-terminus of SREBP1 (Labvision Corporation, Calif.) at 1.5 μg/mL in 5% skimmed milk powder for two hours at room temperature. An HRP conjugated goat anti-mouse F(ab)2 antibody (Pierce) was used for detection of specific signals together with Supersignal reagent (Pierce) and a Fuji BAS 1800 analyzer (Fuji Photo Film Co.). To analyze phosphorylated liver proteins by western blot, total liver protein homogenates were prepared from frozen tissue by homogenization using a polytron followed by sonication in a buffer containing 20 mM Tris-Hcl, pH 7,4, 1% Triton X-100, 10% Glycerol, 150 mM NaCl, 2 mM EDTA, 25 mM betaglycerophosphate, 20 mM sodium floride, 1 mM sodium orthovanadate, 2 mM sodium pyrophosphate, 1 mM benzamidine, 1 mM phenyl-methylsulfonyl fluoride, 0.5 mM leupeptin, Complete proteinase inhibitor (Roche), and then centrifuged at 14 000 rpm in a microcentrifuge, and the supernatant was recovered. 50 μg protein was loaded on NuPage Bis-Tris gels (Invitrogen) and transferred to nitrocellulose membranes. […]

[2] = Phase IIb placebo-controlled study in patients with Chronic Idiopathic Constipation: plasma glucose; type: in vivo, human (patients); settings: for Glucose concentration, Baseline, Mean ± SD: 10 mg group
Description: In a Phase Ilb, Double-blind, Randomised, Placebo-controlled, Multi-centre, Dose-finding,
Efficacy and Safety of a Range of Doses of the substance according to Example 14 in Patients with Chronic Idiopathic Constipation in addition also have glucose values above Upper limit of normal (ULN), treated for 56 days. The patient was a male or non-pregnant female 20 years of age and 80 years of age with body mass index (BMI) 18.5 but <35.
p-values were obtained from an analysis of covariance with treatment group, demographic group and treatment-by-demographic group as fixed factors and baseline value as a covariate in the model. No adjustment for multiple comparisons was made.

IBAT = target: T3, IBAT (Mus musculus, UniProt P70172); assay: 75SeHCAT intestinal absorption (faecal excretion / body retention) in ApoE knock out mice; type: in vivo; settings: single oral dose 0.156 μmol/kg, 75SeHCAT given 30 min later, 24 h collection, read-out: % inhibition 0.156 μmol/kg (mean IBAT inhibitory effect)
T3 construct: from tissue; host or cells: living ApoE knock-out C57BL/6 mice (intestine, in vivo)
T3 sequence (P70172 1-348): T2 sequence (P70172 1-348)
Protocol: Species Mouse; Strain ApoE knock out; Substrain C57BL/6; Sex Female; Total No. of animals 70; Body weight range 20 g to 22 g; Supplier Mollegaard's Breeding (Skensved, Denmark); Identification method ID cards (bar code).
Acclimatisation At least one week at the Section of Laboratory; Animal Resource at AstraZeneca; Housing conditions Kept five by five in cages (Makrolon III, 7 dm2) in a room with regulated temperature ([…]), relative humidity (40% to 60%) and a 12/12 hours light/dark cycle. Diet Free access to R3 pellets (Lactamin, Vadstena, Sweden) during the housing and experimental period. Water Free access to tap water during the housing and experimental period.
Volume(s) of administration 0.1 mL per mousen […]
The animals were orally administered vehicle or Example 14 (0.156 , 0.625 or 2.5 pmol/kg) at 13:00 o'clock on the experimental day. […] The gamma radioactivities of 75SeHCAT in the faeces and in the gall bladder-intestine were separately counted by 1282 CompuGamma CS Gamma counter (Wallac oy, Turku, Finland). The stability as well as the quantity of the 75SeHCAT administered to each mouse, were controlled with an additional 75SeHCAT aliquot following the same experimental process as other tested samples in the study. […]
The mean IBAT inhibitory effect (%) at a dose (pmol/kg): 0.156 was determined for the compounds of examples 1-14 and is reported in Table 1.

[3] = western blot with phosphospecific antibodies

For `CCCCC1(CCCC)CN(c2ccccc2)c2cc(SC)c(OCC(=O)N[C@@H](C(=O)NCC(=O)O)c3ccccc3)cc2S(=O)(=O)C1` [Example 14, 1,1-Dioxo-3,3-dibutyl-5-phenyl-7-methylthio-8-(N-{ (R)-1′-phenyl-1′-[N′-(carboxymethyl)carbamoyl]methyl}carbamoylmethoxy)-2,3,4,5-tetrahydro-1,5-benzothiazepine], the IC50 [1] was 1.2 nM, the “Total plasma TG levels reduced” value (Slc10a2 protein; 11 days treatment) was 73% and the “Fasting levels of glucose reduced vs vehicle” value (Slc10a2 protein; 11 days treatment, blood glucose) was 30%. For the same compound, the “Fasting insulin levels reduced” value (Slc10a2 protein; 11 days treatment, plasma) was 50%, the “Total plasma cholesterol increased” value (Slc10a2 protein; 11 days treatment, tendency) was 16% and the “FGF15 mRNA level” value (Slc10a2 protein; 11 days, distal ileum) was “significantly reduced”. For the same compound, the FXR gene expression (Slc10a2 protein; 11 days, distal ileum) was “unaltered”, the “IBABP mRNA level” value (Slc10a2 protein; 11 days, distal ileum) was “significantly reduced” and the “SHP mRNA level” value (Slc10a2 protein; 11 days, distal ileum) was “significantly reduced”. For the same compound, the “Hepatic G6Pase expression” value (Slc10a2 protein; 11 days, liver) was “reduced”, the “Hepatic GK mRNA level” value (Slc10a2 protein; 11 days, liver) was “increased” and the “Hepatic LPK mRNA reduced” value (Slc10a2 protein; 11 days, liver) was 30%. For the same compound, the “Hepatic PEPCK expression” value (Slc10a2 protein; 11 days, liver) was “reduced”, the “Hepatic SREBP1c mRNA levels” value (Slc10a2 protein; 11 days, liver) was “markedly reduced” and the “Hepatic cholesterol and TG content” value (Slc10a2 protein; 11 days, liver, vs control) was “no difference”. For the same compound, the “Hepatic ACC mRNA level decreased” value (Slc10a2 protein; 11 days, liver, vs vehicle) was 50%, the “Hepatic FAS mRNA level decreased” value (Slc10a2 protein; 11 days, liver, vs vehicle) was 80% and the “Hepatic SCD1 mRNA level” value (Slc10a2 protein; 11 days, liver, vs vehicle) was “not significantly altered”. For the same compound, the “Hepatic mRNA expression of FGF21” value (Slc10a2 protein; 11 days, liver, vs vehicle) was “doubled”, the “Hepatic mRNA level of CYP7A1” value (Slc10a2 protein; 11 days, liver, vs vehicle) was “increased” and the “Akt serine 473 phosphorylation in liver lysates” value (Slc10a2 protein; [3]) was “reduced”. The “Mek1/2-Erk1/2 pathway activation in liver” value (Slc10a2 protein; [3]) was “reduced activation”, the “Glucose concentration, Baseline, Mean ± SD” value ([2]; patients with glucose >ULN, n=4, before treatment) was 129.8 ± 7.4 mg/dL and the “Glucose concentration, End of Treatment, Mean ± SD” value ([2]; patients with glucose >ULN, 10 mg, 56 days, n=4) was 82 ± 10.23 mg/dL. The “Glucose concentration % change baseline to end of treatment” value ([2]; patients with glucose >ULN, 10 mg, 56 days, p 0.013 vs placebo) was −36.9%, the “Reduction of glucose concentration, baseline vs end of treatment” value ([2]; patients with glucose higher than ULN, 10 mg, 56 days) was 36% and the “Change of glucose concentration, baseline vs end of treatment” value ([2]; patients with glucose lower or equal to ULN) was “did not show any significant change”. The “Glucose concentration, Baseline, Mean ± SD” value ([2]; patients with glucose ≦ULN, n=25, before treatment) was 91.3 ± 7.52 mg/dL, the “Glucose concentration, End of Treatment, Mean ± SD” value ([2]; patients with glucose ≦ULN, 10 mg, 56 days, n=25) was 90.6 ± 12.96 mg/dL and the “Glucose concentration % change baseline to end of treatment” value ([2]; patients with glucose ≦ULN, 10 mg, 56 days, p 0.653 vs placebo) was −1%.
Compound `CCCCC1(CCCC)CN(c2ccccc2)c2cc(SC)c(OCC(=O)N[C@@H](C(=O)N[C@@H](CC)C(=O)O)c3ccc(O)cc3)cc2S(=O)(=O)C1` [Example 11, 1,1-Dioxo-3,3-dibutyl-5-phenyl-7-methylthio-8-(N-{(R)-α-[N′-((S)-1-carboxypropyl)carbamoyl]-4-hydroxybenzyl}carbamoylmethoxy) -2,3,4,5-tetrahydro-1,5-benzothiazepine] has an inhibition at 0.156 µmol/kg (IBAT) of 63% and an IC50 [1] of 0.15 nM.

— patent publication US20120114588A1, “IBAT INHIBITORS FOR TREATMENT OF METABOLIC DISORDERS AND RELATED CONDITIONS” (ALBIREO AB, priority 2010, published 2012)
